Test systems include 786-0 renal; BT-549 breast; HCT-15 colon; HOP-92 NSCLC; MALME-3M melanoma; MOLT-4 leukemia; OVCAR-5 ovarian; SF-268 CNS; TK-10 renal; U251 CNS.
Assay in all cases: inhibition of tumour cell growth, NCI panel, 48 h

SMILES strings stand for the structures.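 Grown in 96-well plates, cells were treated for 48 hours with each compound at five concentrations. Insufficient inhibition: endpoint recorded as highest concentration tested. Here, GI50 denotes the concentration required for 50% inhibition of growth. TGI is the concentration that stops growth completely.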

As for `COc1ccc2[nH]c(O)c(/C=c3/ccc4c(c3)N=C(c3ccc(F)cc3)N=4)c2c1`, the GI50 in the assay with 786-0 renal was 1.69 µM; in the assay on BT-549 breast, 1.75 µM; in the assay on HCT-15 colon, 5.83 µM; in the assay with HOP-92 NSCLC, 2.06 µM; in the assay with MALME-3M melanoma, 2.58 µM; with MOLT-4 leukemia, 13.9 µM. Besides, the GI50 with OVCAR-5 ovarian was 7.1 µM; in the assay on SF-268 CNS it was 3.76 µM; in the assay with TK-10 renal it was 3.01 µM; with U251 CNS, 3.65 µM. Also, the TGI in the assay on 786-0 renal is 3.26 µM; in the assay on BT-549 breast, 4.75 µM; with HCT-15 colon, greater than 100 µM; in the assay with HOP-92 NSCLC, 8.75 µM; in the assay on MALME-3M melanoma, 6.32 µM; in the assay on MOLT-4 leukemia, greater than 100 µM. In addition, the TGI in the assay on OVCAR-5 ovarian came to 97.9 µM; with SF-268 CNS, 22.7 µM; with TK-10 renal, 7.12 µM; with U251 CNS it was 30.8 µM.

`Cc1cc(S(N)(=O)=O)c(S/C(=N\Nc2ccc([N+](=O)[O-])cc2)c2ccc3ccccc3c2)cc1Cl`: the GI50 was 18.7 µM in the assay on 786-0 renal; 20.5 µM in the assay with BT-549 breast; 20.1 µM in the assay with HCT-15 colon; 1.32 µM in the assay with HOP-92 NSCLC; 11.7 µM in the assay on MALME-3M melanoma; 73.9 µM in the assay with MOLT-4 leukemia. Also, the GI50 was 14.8 µM with OVCAR-5 ovarian, 10.1 µM in the assay on SF-268 CNS, 7.46 µM in the assay with TK-10 renal and 19.7 µM in the assay on U251 CNS. The TGI in the assay with 786-0 renal is 42.9 µM; in the assay on BT-549 breast, 69.7 µM; with HCT-15 colon, 41 µM; in the assay on HOP-92 NSCLC, 19.6 µM; in the assay with MALME-3M melanoma, 25.7 µM; in the assay on MOLT-4 leukemia, greater than 100 µM. Moreover, the TGI was found to be 27.9 µM with OVCAR-5 ovarian, 44.4 µM in the assay with SF-268 CNS, 31.7 µM in the assay on TK-10 renal and 59.4 µM with U251 CNS.

For the compound `COc1ccc(Oc2cc(NCCC(F)(F)F)c3ncc(-c4ccc(C(=O)NC5CC5)c(C)c4)n3n2)c(F)c1F`, the GI50 in the assay with 786-0 renal was 1.05 µM; with BT-549 breast it was 2.14 µM; with HCT-15 colon, less than 0.01 µM; with HOP-92 NSCLC it was 4.54 µM; in the assay on MALME-3M melanoma, 2.08 µM; in the assay on MOLT-4 leukemia, 2.03 µM. In addition, the GI50 in the assay on OVCAR-5 ovarian was 24.9 µM; in the assay on SF-268 CNS, 4.98 µM; in the assay with TK-10 renal, 4.61 µM; in the assay with U251 CNS, 0.597 µM. Besides, the TGI in the assay with 786-0 renal is greater than 52.3 µM; in the assay with BT-549 breast, 42.1 µM; in the assay with HCT-15 colon, greater than 100 µM; with HOP-92 NSCLC, 39.3 µM; in the assay on MALME-3M melanoma, 54.8 µM; in the assay with MOLT-4 leukemia, greater than 100 µM. The TGI in the assay on OVCAR-5 ovarian is greater than 100 µM; with SF-268 CNS, greater than 100 µM; in the assay on TK-10 renal, greater than 100 µM; in the assay on U251 CNS, 57.8 µM.

Take `C#C/C=C/CC1OC(C(Br)CC)CC(Br)C2CC1O2` (stereo not given): the TGI is 24.8 µM in the assay with 786-0 renal; greater than 100 µM in the assay on BT-549 breast; greater than 100 µM in the assay on HCT-15 colon; 58.6 µM in the assay with HOP-92 NSCLC; 25.7 µM with MALME-3M melanoma; greater than 100 µM with MOLT-4 leukemia. For the same compound, the TGI with OVCAR-5 ovarian, in the assay on SF-268 CNS, in the assay on TK-10 renal and in the assay on U251 CNS was greater than 100 µM each time.

With `CC(C)(C)OC(=O)NCCCCCCCCCCn1c2c(c3ccccc3c1=O)C(=O)c1ccccc1-2`, the GI50 in the assay on 786-0 renal was 20.2 µM; in the assay on BT-549 breast it was 57.5 µM; with HCT-15 colon it was greater than 100 µM; in the assay on HOP-92 NSCLC it was 9.92 µM; with MALME-3M melanoma, greater than 100 µM; in the assay with MOLT-4 leukemia it was 16.2 µM. Further, the GI50 was greater than 100 µM in the assay on OVCAR-5 ovarian, 21.9 µM in the assay with SF-268 CNS, 20.3 µM in the assay with TK-10 renal and 29 µM in the assay on U251 CNS. For the same compound, the TGI in the assay with 786-0 renal was greater than 100 µM; in the assay with BT-549 breast it was greater than 100 µM; in the assay on HCT-15 colon, greater than 100 µM; in the assay on HOP-92 NSCLC, 35.2 µM; in the assay with MALME-3M melanoma, greater than 100 µM; in the assay on MOLT-4 leukemia, 31.2 µM. Moreover, the TGI in the assay on OVCAR-5 ovarian was greater than 100 µM; in the assay with SF-268 CNS it was greater than 100 µM; with TK-10 renal it was 52.1 µM; in the assay on U251 CNS it was greater than 100 µM.

Turning to `CNC(=O)c1cc2c(Oc3ccc(NC(=S)NC(=O)Cc4ccccc4)cc3F)ccnc2cc1OC`, the GI50 was 5.75 µM with 786-0 renal; 2.91 µM with BT-549 breast; 4.7 µM with HCT-15 colon; 1.67 µM with HOP-92 NSCLC; 8.85 µM in the assay with MALME-3M melanoma; 3.47 µM in the assay with MOLT-4 leukemia. The GI50 is greater than 36.1 µM in the assay with OVCAR-5 ovarian, 4.51 µM in the assay on SF-268 CNS, 5.99 µM with TK-10 renal and greater than 100 µM with U251 CNS. Further, the TGI was greater than 100 µM with 786-0 renal; greater than 28.7 µM with BT-549 breast; greater than 100 µM with HCT-15 colon; greater than 100 µM in the assay on HOP-92 NSCLC; greater than 100 µM with MALME-3M melanoma; greater than 100 µM in the assay on MOLT-4 leukemia. Also, the TGI in the assay on OVCAR-5 ovarian, in the assay on SF-268 CNS, in the assay with TK-10 renal and in the assay with U251 CNS was greater than 100 µM each time.

`Cc1ncc(-c2ccnc(Nc3ccc(S(C)(=O)=O)cc3)n2)n1C(C)C`: the GI50 in the assay on 786-0 renal was 0.922 µM; in the assay on BT-549 breast, 0.925 µM; in the assay on HCT-15 colon it was 1.41 µM; in the assay on HOP-92 NSCLC it was 0.926 µM; in the assay with MALME-3M melanoma, 2.56 µM; with MOLT-4 leukemia it was 1.03 µM. Moreover, the GI50 in the assay on OVCAR-5 ovarian is 1.09 µM; with SF-268 CNS, 1.67 µM; in the assay on TK-10 renal, 1.37 µM; with U251 CNS, 1.11 µM. Further, the TGI is greater than 10 µM with 786-0 renal; 7.22 µM in the assay on BT-549 breast; greater than 8.6 µM in the assay with HCT-15 colon; 6.16 µM with HOP-92 NSCLC; 6.04 µM with MALME-3M melanoma; 4.99 µM in the assay on MOLT-4 leukemia. Moreover, the TGI in the assay on OVCAR-5 ovarian was greater than 8.88 µM; with SF-268 CNS, 6.62 µM; in the assay on TK-10 renal, greater than 10 µM; with U251 CNS it was greater than 10 µM.
